Here are results for 14 molecules from patent publication US20260355212A1 (priority 2022, published 2026).

Each structure is given as a SMILES string. pIC50: −log10 of the molar value. Where two headings read alike, the source gives them in different places.

One test deals with SARS-CoV-2 Mpro (Severe acute respiratory syndrome coronavirus 2, UniProt P0DTD1). The test is described as follows: SARS-CoV-2 Mpro enzymatic inhibition assay (fluorescence). It counts as biochemical. In outline:
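A fluorescence readout (340 nm excitation, 490 nm emission) was taken after the substrate reaction ran 60 min at 30° C. Before substrate addition, E. coli-expressed protease and compound (3-fold dilutions, 10 doses, duplicates) sat together 30 min at room temperature. Percent inhibition was fitted by variable-slope nonlinear regression to give IC50.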

For a further test, the target named is HCoV-229E Mpro (Human coronavirus 229E, UniProt P0C6X1). The test is described as follows: HCoV-229E Mpro enzymatic inhibition assay (fluorescence). The class given is biochemical.
The next test deals with HCoV-HKU1 Mpro (Human coronavirus HKU1, UniProt P0C6X2). The test is described as follows: HCoV-HKU1 Mpro enzymatic inhibition assay (fluorescence). It counts as biochemical. An outline of the steps:
(§1)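 Steps: compound dilution series (3-fold, 10 doses) dispensed; Mpro added and pre-incubated 30 min at room temperature; substrate added; plates incubated 60 min at 30 °C; fluorescence measured at Ex/Em=340 nm/490 nm.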

Another test has as its target MERS Mpro (Middle East respiratory syndrome-related coronavirus, UniProt K9N7C7). The test is described as follows: biochemical. Also on record: species or system MERS-CoV.
A further test concerns the target HCoV-NL63 Mpro (Human coronavirus NL63, UniProt P0C6X5). The test is described as follows: HCoV-NL63 Mpro enzymatic inhibition assay (fluorescence). The class given is biochemical. In outline:
as §1

The next test concerns the target HCoV-OC43 Mpro (Human coronavirus OC43, UniProt P0C6X6). The test is described as follows: HCoV-OC43 Mpro enzymatic inhibition assay (fluorescence). It counts as biochemical. An outline of the steps:
as §1

A further test deals with SARS-CoV-1 Mpro (Severe acute respiratory syndrome coronavirus, UniProt P0C6X7). The test is described as follows: biochemical.
[1] abbreviates: mean, 25 nM protein, 25 μM substrate, 30 min pre-incubation, 60 min at 30° C., read-out: Mpro_SARS-CoV-2 mean IC50.

Sequence of HCoV-NL63 Mpro (P0C6X5 2940-3242 limits assumed): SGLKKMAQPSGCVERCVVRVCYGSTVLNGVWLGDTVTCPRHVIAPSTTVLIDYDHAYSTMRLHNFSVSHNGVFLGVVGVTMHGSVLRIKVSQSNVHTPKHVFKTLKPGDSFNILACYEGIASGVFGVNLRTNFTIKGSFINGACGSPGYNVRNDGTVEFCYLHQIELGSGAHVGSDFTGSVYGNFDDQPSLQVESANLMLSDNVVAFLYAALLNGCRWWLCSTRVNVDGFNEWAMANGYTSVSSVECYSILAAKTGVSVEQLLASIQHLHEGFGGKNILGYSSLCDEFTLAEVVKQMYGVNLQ
Sequence of MERS Mpro (K9N7C7 3248-3553 limits assumed): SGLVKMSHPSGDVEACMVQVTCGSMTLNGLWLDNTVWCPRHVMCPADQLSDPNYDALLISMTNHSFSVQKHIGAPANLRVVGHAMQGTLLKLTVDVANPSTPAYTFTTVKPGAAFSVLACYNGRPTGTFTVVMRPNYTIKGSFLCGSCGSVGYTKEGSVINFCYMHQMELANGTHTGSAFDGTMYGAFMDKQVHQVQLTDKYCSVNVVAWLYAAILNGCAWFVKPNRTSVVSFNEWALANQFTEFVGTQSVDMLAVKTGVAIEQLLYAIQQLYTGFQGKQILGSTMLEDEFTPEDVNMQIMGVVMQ
Sequence of HCoV-OC43 Mpro (P0C6X6 3247-3549 limits assumed): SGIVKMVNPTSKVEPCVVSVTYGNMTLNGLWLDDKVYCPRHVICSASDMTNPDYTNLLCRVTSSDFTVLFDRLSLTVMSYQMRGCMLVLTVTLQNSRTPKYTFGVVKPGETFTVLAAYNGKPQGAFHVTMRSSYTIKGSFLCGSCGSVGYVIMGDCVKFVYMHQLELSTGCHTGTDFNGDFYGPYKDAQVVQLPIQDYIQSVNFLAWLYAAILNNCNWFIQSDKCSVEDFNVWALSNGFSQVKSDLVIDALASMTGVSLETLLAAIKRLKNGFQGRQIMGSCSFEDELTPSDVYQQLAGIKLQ
Sequence of HCoV-229E Mpro (P0C6X1 2966-3267 limits assumed): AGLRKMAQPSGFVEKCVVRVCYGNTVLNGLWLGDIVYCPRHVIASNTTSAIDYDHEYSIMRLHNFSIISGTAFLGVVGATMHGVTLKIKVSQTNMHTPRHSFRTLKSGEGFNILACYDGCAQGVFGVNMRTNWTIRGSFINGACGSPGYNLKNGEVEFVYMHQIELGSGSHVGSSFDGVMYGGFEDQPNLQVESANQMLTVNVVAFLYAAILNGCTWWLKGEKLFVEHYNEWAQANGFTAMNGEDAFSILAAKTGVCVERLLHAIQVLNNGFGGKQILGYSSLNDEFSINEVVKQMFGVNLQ
Sequence of HCoV-HKU1 Mpro (P0C6X2 3335-3637 limits assumed): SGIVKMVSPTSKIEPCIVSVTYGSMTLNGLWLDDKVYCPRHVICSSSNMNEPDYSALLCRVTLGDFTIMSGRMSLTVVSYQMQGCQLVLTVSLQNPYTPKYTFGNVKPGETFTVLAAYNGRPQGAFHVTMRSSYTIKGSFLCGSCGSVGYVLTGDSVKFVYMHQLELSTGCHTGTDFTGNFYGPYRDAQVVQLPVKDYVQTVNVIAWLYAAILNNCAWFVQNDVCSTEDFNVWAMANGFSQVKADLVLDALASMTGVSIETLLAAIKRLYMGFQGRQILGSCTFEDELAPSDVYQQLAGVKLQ

A word on the pIC50: it is −log10 of the IC50, conventionally taken in molar units. Turning to `CC1(C)[C@@H]2[C@@H](C(=O)N[C@H](C=O)C[C@@H]3CCNC3=O)N(C(=O)CC3CCCCC3(F)F)C[C@@H]21` (stereo partly drawn) [Compound 64, (1R,2S,5S)-3-(2-(2,2-Difluorocyclohexyl)acetyl)-6,6-dimethyl-N—((S)-1-oxo-3-((S)-2-oxopyrrolidin-3-yl)propan-2-yl)-3-azabicyclo[3.1.0]hexane-2-carboxamide], the pIC50 at SARS-CoV-2 Mpro was 7.57; against HCoV-229E Mpro it was 7.27; against HCoV-HKU1 Mpro, 7.33; on MERS Mpro, 6.65; against HCoV-NL63 Mpro, 6.98; at HCoV-OC43 Mpro it was 7.18. Further, the pIC50 against SARS-CoV-1 Mpro was 7.33.
As to `CC(C)(C)CCC(=O)N1C[C@H]2[C@@H]([C@H]1C(=O)N[C@H](C=O)C[C@@H]1CCNC1=O)C2(C)C` [Compound 73, (1R,2S,5S)-3-(4,4-Dimethylpentanoyl)-6,6-dimethyl-N—((S)-1-oxo-3-((S)-2-oxopyrrolidin-3-yl)propan-2-yl)-3-azabicyclo[3.1.0]hexane-2-carboxamide], the pIC50 on SARS-CoV-2 Mpro (setting [1]) is 7.50; against HCoV-229E Mpro it was 7.20; at HCoV-HKU1 Mpro, 7.24; against MERS Mpro it was 6.49; on HCoV-NL63 Mpro it was 6.74; on HCoV-OC43 Mpro, 7.15. This molecule showed a pIC50 at SARS-CoV-1 Mpro of 7.20.
In the case of `Cc1ccc2[nH]c(C(=O)N3C[C@H]4[C@@H]([C@H]3C(=O)N[C@H](C=O)C[C@@H]3CCNC3=O)C4(C)C)cc2c1` [Compound 93, (1R,2S,5S)-6,6-Dimethyl-3-(5-methyl-1H-indole-2-carbonyl)-N—((S)-1-oxo-3-((S)-2-oxopyrrolidin-3-yl)propan-2-yl)-3-azabicyclo[3.1.0]hexane-2-carboxamide], the pIC50 on SARS-CoV-2 Mpro is 7.35; against HCoV-229E Mpro, 7.48; on HCoV-HKU1 Mpro, 7.62; against MERS Mpro it was 6.50; against HCoV-NL63 Mpro, 7.27; against HCoV-OC43 Mpro, 7.26. On SARS-CoV-1 Mpro, this molecule showed a pIC50 of 7.14.
As to `O=C[C@H](C[C@@H]1CCNC1=O)NC(=O)[C@@H]1CC(F)(F)CN1C(=O)c1cc2ccccc2[nH]1` [Compound 115, (S)-4,4-difluoro-1-(1H-Indole-2-carbonyl)-N—((S)-1-oxo-3-((S)-2-oxopyrrolidin-3-yl)propan-2-yl)pyrrolidine-2-carboxamide], the pIC50 was 6.99 on SARS-CoV-2 Mpro; 7.28 against HCoV-229E Mpro; 7.82 at HCoV-HKU1 Mpro; 6.52 against MERS Mpro; 6.98 against HCoV-NL63 Mpro; 7.06 at HCoV-OC43 Mpro. The same molecule showed a pIC50 against SARS-CoV-1 Mpro of 6.60.
As to `CC1(C)[C@@H]2[C@@H](C(=O)N[C@H](C=O)C[C@@H]3CCNC3=O)N(C(=O)c3cc4c(F)cc(F)cc4[nH]3)C[C@@H]21` [Compound 20, (1R,2S,5S)-3-(4,6-difluoro-1H-indole-2-carbonyl)-6,6-dimethyl-N—((S)-1-oxo-3-((S)-2-oxopyrrolidin-3-yl)propan-2-yl)-3-azabicyclo[3.1.0]hexane-2-carboxamide], the negative logarithm of the IC50 (pIC50) on SARS-CoV-2 Mpro was 7.81; against HCoV-229E Mpro it was 7.40; against HCoV-HKU1 Mpro it was 7.78; on MERS Mpro it was 6.56; on HCoV-NL63 Mpro it was 7.43; at HCoV-OC43 Mpro it was 7.26. Further, the negative logarithm of the IC50 (pIC50) on SARS-CoV-1 Mpro was 7.39.
For the molecule `CC1(C)[C@@H]2[C@@H](C(=O)N[C@H](C=O)C[C@@H]3CCNC3=O)N(C(=O)C3(O)CCCCC3)C[C@@H]21` [Compound 94, (1R,2S,5S)-3-(1-Hydroxycyclohexanecarbonyl)-6,6-dimethyl-N—((S)-1-oxo-3-((S)-2-oxopyrrolidin-3-yl)propan-2-yl)-3-azabicyclo[3.1.0]hexane-2-carboxamide], the negative logarithm of the IC50 (pIC50) is 7.35 at SARS-CoV-2 Mpro (setting [1]); 7.16 against HCoV-229E Mpro; 6.75 at HCoV-HKU1 Mpro; 6.25 against MERS Mpro; 6.46 against HCoV-NL63 Mpro; 6.64 on HCoV-OC43 Mpro. For the same molecule, on SARS-CoV-1 Mpro, the pIC50 was 6.94.
`O=C[C@H](C[C@@H]1CCNC1=O)NC(=O)[C@@H]1CC2(CC2)CN1C(=O)c1cc2ccccc2[nH]1` [Compound 47, (S)-5-(1H-Indole-2-carbonyl)-N—((S)-1-oxo-3-((S)-2-oxopyrrolidin-3-yl)propan-2-yl)-5-azaspiro[2.4]heptane-6-carboxamide]: the pIC50 is 7.64 on SARS-CoV-2 Mpro (setting [1]); 7.32 against HCoV-229E Mpro; 7.77 against HCoV-HKU1 Mpro; 6.86 against MERS Mpro; 7.32 at HCoV-NL63 Mpro; 7.19 on HCoV-OC43 Mpro. On SARS-CoV-1 Mpro, this molecule had a pIC50 of 7.37.
As for `CC1(C)[C@@H]2[C@@H](C(=O)N[C@H](C#N)C[C@@H]3CCNC3=O)N(C(=O)c3cc4c(F)ccc(Cl)c4[nH]3)C[C@@H]21` [Compound 128, (1R,2S,5S)-3-(7-Chloro-4-fluoro-1H-indole-2-carbonyl)-N—((S)-1-cyano-2-((S)-2-oxopyrrolidin-3-yl)ethyl)-6,6-dimethyl-3-azabicyclo[3.1.0]hexane-2-carboxamide], the pIC50 at SARS-CoV-2 Mpro is 6.50; at HCoV-229E Mpro it was 5.91; on HCoV-HKU1 Mpro, 5.72; against MERS Mpro it was 5.25; against HCoV-NL63 Mpro, 5.40; against HCoV-OC43 Mpro, 5.70. The pIC50 on SARS-CoV-1 Mpro is 6.10.
Turning to `CC1(C)[C@@H]2[C@@H](C(=O)N[C@H](C=O)C[C@@H]3CCNC3=O)N(C(=O)C3CCCC3)C[C@@H]21` [Compound 124, (1R,2S,5S)-3-(Cyclopentanecarbonyl)-6,6-dimethyl-N—((S)-1-oxo-3-((S)-2-oxopyrrolidin-3-yl)propan-2-yl)-3-azabicyclo[3.1.0]hexane-2-carboxamide], the negative-log IC50 (pIC50) was 6.68 on SARS-CoV-2 Mpro (setting [1]); 6.79 against HCoV-229E Mpro; 6.39 at HCoV-HKU1 Mpro; 5.70 against MERS Mpro; 5.60 at HCoV-NL63 Mpro; 6.31 on HCoV-OC43 Mpro. At SARS-CoV-1 Mpro, this molecule had a pIC50 of 6.33.
Regarding `CC1(C)[C@@H]2[C@@H](C(=O)N[C@H](C=O)C[C@@H]3CCNC3=O)N(C(=O)c3cc4cccc(F)c4[nH]3)C[C@@H]21` [Compound 6, (1R,2S,5S)-3-(7-fluoro-1H-indole-2-carbonyl)-6,6-dimethyl-N—((S)-1-oxo-3-((S)-2-oxopyrrolidin-3-yl)propan-2-yl)-3-azabicyclo[3.1.0]hexane-2-carboxamide], the pIC50 against SARS-CoV-2 Mpro is 7.97; on HCoV-229E Mpro it was 7.51; against HCoV-HKU1 Mpro, 7.60; at MERS Mpro, 6.77; against HCoV-NL63 Mpro, 7.42; against HCoV-OC43 Mpro, 7.41. At SARS-CoV-1 Mpro, this molecule gave a pIC50 of 7.71.
On to `COc1ccc(F)c2[nH]c(C(=O)N3C[C@H]4[C@@H]([C@H]3C(=O)N[C@H](C=O)C[C@@H]3CCNC3=O)C4(C)C)cc12` [Compound 36, (1R,2S,5S)-3-(7-Fluoro-4-methoxy-1H-indole-2-carbonyl)-6,6-dimethyl-N—((S)-1-oxo-3-((S)-2-oxopyrrolidin-3-yl)propan-2-yl)-3-azabicyclo[3.1.0]hexane-2-carboxamide], for which the pIC50 was 7.69 on SARS-CoV-2 Mpro; 7.48 at HCoV-229E Mpro; 7.45 against HCoV-HKU1 Mpro; 6.61 against MERS Mpro; 7.29 at HCoV-NL63 Mpro; 7.37 on HCoV-OC43 Mpro. In addition, the negative logarithm of the IC50 (pIC50) against SARS-CoV-1 Mpro was 7.50.
With `CC(C)c1cccc2[nH]c(C(=O)N3C[C@H]4[C@@H]([C@H]3C(=O)N[C@H](C=O)C[C@@H]3CCNC3=O)C4(C)C)cc12` [Compound 34, (1R,2S,5S)-3-(4-isopropyl-1H-indole-2-carbonyl)-6,6-dimethyl-N—((S)-1-oxo-3-((S)-2-oxopyrrolidin-3-yl)propan-2-yl)-3-azabicyclo[3.1.0]hexane-2-carboxamide], the pIC50 at SARS-CoV-2 Mpro (setting [1]) was 7.70; against HCoV-229E Mpro, 7.42; against HCoV-HKU1 Mpro, 7.68; on MERS Mpro it was 6.56; against HCoV-NL63 Mpro it was 7.19; against HCoV-OC43 Mpro, 7.24. Further, on SARS-CoV-1 Mpro, the pIC50 is 7.45.
As for `O=C[C@H](C[C@@H]1CCNC1=O)NC(=O)[C@@H]1CCCN1C(=O)c1cc2ccccc2[nH]1` [Compound 138], the pIC50 at SARS-CoV-2 Mpro (setting [1]) is 6.30; against HCoV-229E Mpro it was 6.68; on HCoV-HKU1 Mpro it was 6.64; against MERS Mpro it was 5.76; at HCoV-NL63 Mpro, 6.38; at HCoV-OC43 Mpro, 6.50. This molecule showed a pIC50 against SARS-CoV-1 Mpro of 6.16.
On to `C[C@H](C(=O)N1C[C@H]2[C@@H]([C@H]1C(=O)N[C@H](C=O)C[C@@H]1CCNC1=O)C2(C)C)C1CCCCC1` [Compound 92, (1R,2S,5S)-3-((S)-2-Cyclohexylpropanoyl)-6,6-dimethyl-N—((S)-1-oxo-3-((S)-2-oxopyrrolidin-3-yl)propan-2-yl)-3-azabicyclo[3.1.0]hexane-2-carboxamide], for which the pIC50 at SARS-CoV-2 Mpro (setting [1]) is 7.35; against HCoV-229E Mpro, 7.36; against HCoV-HKU1 Mpro, 7.40; at MERS Mpro, 6.38; at HCoV-NL63 Mpro it was 6.79; against HCoV-OC43 Mpro, 6.96. Moreover, the pIC50 on SARS-CoV-1 Mpro was 7.05.
